Test results taken from publication PMC5838524 (Molecular Informatics, 2018).

How the values were obtained:
Assay in all cases: Gal4 hybrid reporter gene assay
Type in all cases: cell-based
Details in all cases: agonist mode; printed as 'inactive' (no significant transactivation at 30 μM)
PPARδ = target: T1, PPARδ (Homo sapiens, UniProt Q03181)
T1 sequence (Q03181 139-441 limits assumed): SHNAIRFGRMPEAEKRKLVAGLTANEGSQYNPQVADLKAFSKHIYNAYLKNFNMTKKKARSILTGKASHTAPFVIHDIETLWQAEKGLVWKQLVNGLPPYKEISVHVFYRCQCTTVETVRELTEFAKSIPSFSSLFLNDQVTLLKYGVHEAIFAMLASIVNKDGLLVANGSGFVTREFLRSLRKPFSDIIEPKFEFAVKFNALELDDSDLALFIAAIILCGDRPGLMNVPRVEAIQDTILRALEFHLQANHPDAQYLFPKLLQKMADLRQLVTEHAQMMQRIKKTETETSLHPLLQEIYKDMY

PPARα = target: T2, PPARα (Homo sapiens, UniProt Q07869)
T2 sequence (Q07869 167-468 limits assumed): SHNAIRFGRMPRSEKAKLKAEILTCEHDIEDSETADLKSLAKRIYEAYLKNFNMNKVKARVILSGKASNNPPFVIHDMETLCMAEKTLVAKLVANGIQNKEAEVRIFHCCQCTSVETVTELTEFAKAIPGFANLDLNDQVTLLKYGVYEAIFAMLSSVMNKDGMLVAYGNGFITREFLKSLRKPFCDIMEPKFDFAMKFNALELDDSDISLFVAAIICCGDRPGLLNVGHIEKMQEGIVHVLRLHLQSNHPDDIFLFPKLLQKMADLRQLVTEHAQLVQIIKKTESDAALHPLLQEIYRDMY

RXRγ = target: T3, RXRγ (Homo sapiens, UniProt P48443)
T3 sequence (P48443 231-459 limits assumed): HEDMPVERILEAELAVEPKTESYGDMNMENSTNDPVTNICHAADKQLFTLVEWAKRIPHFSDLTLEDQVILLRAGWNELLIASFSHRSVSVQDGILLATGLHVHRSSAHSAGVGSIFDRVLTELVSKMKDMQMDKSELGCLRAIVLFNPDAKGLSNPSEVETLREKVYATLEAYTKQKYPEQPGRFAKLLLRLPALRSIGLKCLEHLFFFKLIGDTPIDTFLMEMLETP

RXRα = target: T4, RXRα (Homo sapiens, UniProt P19793)
T4 sequence (P19793 225-462 limits assumed): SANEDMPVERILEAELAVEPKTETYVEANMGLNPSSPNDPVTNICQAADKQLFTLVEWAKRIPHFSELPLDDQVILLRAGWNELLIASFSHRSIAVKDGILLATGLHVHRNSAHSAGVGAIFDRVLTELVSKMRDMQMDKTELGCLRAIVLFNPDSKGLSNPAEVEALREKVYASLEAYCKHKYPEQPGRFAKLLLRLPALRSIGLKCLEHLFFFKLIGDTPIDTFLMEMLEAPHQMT

RXRβ = target: T5, RXRβ (Homo sapiens, UniProt P28702)
T5 sequence (P28702 296-533 limits assumed): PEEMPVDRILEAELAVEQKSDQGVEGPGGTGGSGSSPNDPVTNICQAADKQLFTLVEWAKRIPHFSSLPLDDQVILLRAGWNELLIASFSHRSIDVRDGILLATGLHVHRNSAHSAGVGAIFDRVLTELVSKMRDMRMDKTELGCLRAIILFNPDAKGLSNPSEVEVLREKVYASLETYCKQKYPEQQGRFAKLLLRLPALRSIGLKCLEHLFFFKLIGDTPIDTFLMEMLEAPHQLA

EC50 (PPARδ) | EC50 (PPARα) | EC50 (RXRγ) | EC50 (RXRα) | EC50 (RXRβ) | SMILES
> 30 µM | > 30 µM |  |  |  | O=C(O)c1cccc(NC(=O)c2ccc(-c3ccccc3)s2)c1 [compound 1, design 1]
> 30 µM |  | > 30 µM | > 30 µM | > 30 µM | O=C(O)c1ccc(-c2cccc(O)c2)cc1OC1CCCC1 [compound 3, design 3]
> 30 µM | > 30 µM |  |  |  | O=C(O)c1ccc(-c2cc(F)ccc2OCc2ccc(F)cc2)c(C(F)(F)F)c1 [compound 2, design 2]
